Laboratory results: PubChem BioAssay AID1918930 (Molecular Pharmacology Branch, DTP, NCI, 2023)

These compounds were tested on 233499-124-R-J3-PDC complex spheroid viability, % test/control (assay: Anticancer human tumor 233499-124-R-J3-PDC patient-derived colon adenocarcinoma cell line growth inhibition). Conditions: curve of first compound; second compound 0.1 µM.
How it was run: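 Drug combinations with the LSD1 inhibitor iadademstat tested on tumor cells co-cultured as spheroids with endothelial cells and mesenchymal stem cells. Concentrations descended in half-log increments from clinical Cmax or 10 microM.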
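Note: spheroids exposed to agents for one week before readout.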

| SMILES | IC50 |
| --- | --- |
| CC(C)c1c(-c2ccccc2)nc2c(C#N)c[nH]n2c1=O + NC1CC1c1ccc(-c2cccc(O)c2)cc1 | > 10000 nM |
| CC1(C)CCC(CN2CCN(c3ccc(C(=O)NS(=O)(=O)c4ccc(NCC5CCOCC5)c([N+](=O)[O-])c4)c(Oc4cnc5[nH]ccc5c4)c3)CC2)=C(c2ccc(Cl)cc2)C1 + NC1CC1c1ccc(-c2cccc(O)c2)cc1 | 2680 nM |
| CC(C)CC(NC(=O)CNC(=O)c1cc(Cl)ccc1Cl)B1OC(=O)CC(CC(=O)O)(C(=O)O)O1 (stereo not drawn) + NC1CCC(NC2CC2c2ccccc2)CC1 | 5.11 nM |
| CC1COCCN1c1cc(-c2ccnn2C)c2ccnc(-c3ccn[nH]3)c2n1 (stereo not drawn) + NC1CC1c1ccc(-c2cccc(O)c2)cc1 | > 1000 nM |
| CC[C@@]1(O)C(=O)OCc2c1cc1n(c2=O)Cc2cc3c(CN(C)C)c(O)ccc3nc2-1 + NC1CC1c1ccc(-c2cccc(O)c2)cc1 | > 100 nM |

Same assay, conditions: curve of first compound; second compound 0.316 µM

| SMILES | IC50 |
| --- | --- |
| CC(C)c1c(-c2ccccc2)nc2c(C#N)c[nH]n2c1=O + NC1CC1c1ccc(-c2cccc(O)c2)cc1 | > 10000 nM |
| CC1(C)CCC(CN2CCN(c3ccc(C(=O)NS(=O)(=O)c4ccc(NCC5CCOCC5)c([N+](=O)[O-])c4)c(Oc4cnc5[nH]ccc5c4)c3)CC2)=C(c2ccc(Cl)cc2)C1 + NC1CC1c1ccc(-c2cccc(O)c2)cc1 | 2450 nM |
| CC(C)CC(NC(=O)CNC(=O)c1cc(Cl)ccc1Cl)B1OC(=O)CC(CC(=O)O)(C(=O)O)O1 (stereo not drawn) + NC1CCC(NC2CC2c2ccccc2)CC1 | 5.49 nM |
| CC1COCCN1c1cc(-c2ccnn2C)c2ccnc(-c3ccn[nH]3)c2n1 (stereo not drawn) + NC1CC1c1ccc(-c2cccc(O)c2)cc1 | > 1000 nM |
| CC[C@@]1(O)C(=O)OCc2c1cc1n(c2=O)Cc2cc3c(CN(C)C)c(O)ccc3nc2-1 + NC1CC1c1ccc(-c2cccc(O)c2)cc1 | > 100 nM |

Same assay, conditions: curve of first compound; second compound 1 µM

| SMILES | IC50 |
| --- | --- |
| CC(C)c1c(-c2ccccc2)nc2c(C#N)c[nH]n2c1=O + NC1CC1c1ccc(-c2cccc(O)c2)cc1 | > 10000 nM |
| CC1(C)CCC(CN2CCN(c3ccc(C(=O)NS(=O)(=O)c4ccc(NCC5CCOCC5)c([N+](=O)[O-])c4)c(Oc4cnc5[nH]ccc5c4)c3)CC2)=C(c2ccc(Cl)cc2)C1 + NC1CC1c1ccc(-c2cccc(O)c2)cc1 | 3180 nM |
| CC(C)CC(NC(=O)CNC(=O)c1cc(Cl)ccc1Cl)B1OC(=O)CC(CC(=O)O)(C(=O)O)O1 (stereo not drawn) + NC1CCC(NC2CC2c2ccccc2)CC1 | 4.87 nM |
| CC1COCCN1c1cc(-c2ccnn2C)c2ccnc(-c3ccn[nH]3)c2n1 (stereo not drawn) + NC1CC1c1ccc(-c2cccc(O)c2)cc1 | > 1000 nM |
| CC[C@@]1(O)C(=O)OCc2c1cc1n(c2=O)Cc2cc3c(CN(C)C)c(O)ccc3nc2-1 + NC1CC1c1ccc(-c2cccc(O)c2)cc1 | > 100 nM |

Same assay, conditions: curve of first compound; second compound 3.16 µM

| SMILES | IC50 |
| --- | --- |
| CC(C)c1c(-c2ccccc2)nc2c(C#N)c[nH]n2c1=O + NC1CC1c1ccc(-c2cccc(O)c2)cc1 | > 10000 nM |
| CC1(C)CCC(CN2CCN(c3ccc(C(=O)NS(=O)(=O)c4ccc(NCC5CCOCC5)c([N+](=O)[O-])c4)c(Oc4cnc5[nH]ccc5c4)c3)CC2)=C(c2ccc(Cl)cc2)C1 + NC1CC1c1ccc(-c2cccc(O)c2)cc1 | 2810 nM |
| CC(C)CC(NC(=O)CNC(=O)c1cc(Cl)ccc1Cl)B1OC(=O)CC(CC(=O)O)(C(=O)O)O1 (stereo not drawn) + NC1CCC(NC2CC2c2ccccc2)CC1 | 4.14 nM |
| CC1COCCN1c1cc(-c2ccnn2C)c2ccnc(-c3ccn[nH]3)c2n1 (stereo not drawn) + NC1CC1c1ccc(-c2cccc(O)c2)cc1 | < 3.16 nM |
| CC[C@@]1(O)C(=O)OCc2c1cc1n(c2=O)Cc2cc3c(CN(C)C)c(O)ccc3nc2-1 + NC1CC1c1ccc(-c2cccc(O)c2)cc1 | > 100 nM |

Same assay, conditions: curve of first compound; second compound 10 µM

| SMILES | IC50 |
| --- | --- |
| CC(C)c1c(-c2ccccc2)nc2c(C#N)c[nH]n2c1=O + NC1CC1c1ccc(-c2cccc(O)c2)cc1 | > 10000 nM |
| CC1(C)CCC(CN2CCN(c3ccc(C(=O)NS(=O)(=O)c4ccc(NCC5CCOCC5)c([N+](=O)[O-])c4)c(Oc4cnc5[nH]ccc5c4)c3)CC2)=C(c2ccc(Cl)cc2)C1 + NC1CC1c1ccc(-c2cccc(O)c2)cc1 | 2270 nM |
| CC(C)CC(NC(=O)CNC(=O)c1cc(Cl)ccc1Cl)B1OC(=O)CC(CC(=O)O)(C(=O)O)O1 (stereo not drawn) + NC1CCC(NC2CC2c2ccccc2)CC1 | 3.33 nM |
| CC1COCCN1c1cc(-c2ccnn2C)c2ccnc(-c3ccn[nH]3)c2n1 (stereo not drawn) + NC1CC1c1ccc(-c2cccc(O)c2)cc1 | < 3.16 nM |
| CC[C@@]1(O)C(=O)OCc2c1cc1n(c2=O)Cc2cc3c(CN(C)C)c(O)ccc3nc2-1 + NC1CC1c1ccc(-c2cccc(O)c2)cc1 | > 100 nM |

Same assay, conditions: second compound 0.1 µM; first compound 0.000316 µM; stronger effect = lower value

| SMILES | viability, T/C |
| --- | --- |
| CC(C)CC(NC(=O)CNC(=O)c1cc(Cl)ccc1Cl)B1OC(=O)CC(CC(=O)O)(C(=O)O)O1 (stereo not drawn) + NC1CCC(NC2CC2c2ccccc2)CC1 | 104% |
| CC[C@@]1(O)C(=O)OCc2c1cc1n(c2=O)Cc2cc3c(CN(C)C)c(O)ccc3nc2-1 + NC1CC1c1ccc(-c2cccc(O)c2)cc1 | 109% |

Same assay, conditions: second compound 0.1 µM; first compound 0.001 µM; stronger effect = lower value

| SMILES | viability, T/C |
| --- | --- |
| CC(C)CC(NC(=O)CNC(=O)c1cc(Cl)ccc1Cl)B1OC(=O)CC(CC(=O)O)(C(=O)O)O1 (stereo not drawn) + NC1CCC(NC2CC2c2ccccc2)CC1 | 90.2% |
| CC[C@@]1(O)C(=O)OCc2c1cc1n(c2=O)Cc2cc3c(CN(C)C)c(O)ccc3nc2-1 + NC1CC1c1ccc(-c2cccc(O)c2)cc1 | 99% |

Same assay, conditions: second compound 0.1 µM; first compound 0.00316 µM; stronger effect = lower value

| SMILES | viability, T/C |
| --- | --- |
| CC(C)CC(NC(=O)CNC(=O)c1cc(Cl)ccc1Cl)B1OC(=O)CC(CC(=O)O)(C(=O)O)O1 (stereo not drawn) + NC1CCC(NC2CC2c2ccccc2)CC1 | 81.8% |
| CC1COCCN1c1cc(-c2ccnn2C)c2ccnc(-c3ccn[nH]3)c2n1 (stereo not drawn) + NC1CC1c1ccc(-c2cccc(O)c2)cc1 | 60.7% |
| CC[C@@]1(O)C(=O)OCc2c1cc1n(c2=O)Cc2cc3c(CN(C)C)c(O)ccc3nc2-1 + NC1CC1c1ccc(-c2cccc(O)c2)cc1 | 81.8% |

Same assay, conditions: second compound 0.1 µM; first compound 0.01 µM; stronger effect = lower value

| SMILES | viability, T/C |
| --- | --- |
| CC(C)CC(NC(=O)CNC(=O)c1cc(Cl)ccc1Cl)B1OC(=O)CC(CC(=O)O)(C(=O)O)O1 (stereo not drawn) + NC1CCC(NC2CC2c2ccccc2)CC1 | 4.56% |
| CC1COCCN1c1cc(-c2ccnn2C)c2ccnc(-c3ccn[nH]3)c2n1 (stereo not drawn) + NC1CC1c1ccc(-c2cccc(O)c2)cc1 | 63.2% |
| CC[C@@]1(O)C(=O)OCc2c1cc1n(c2=O)Cc2cc3c(CN(C)C)c(O)ccc3nc2-1 + NC1CC1c1ccc(-c2cccc(O)c2)cc1 | 52.1% |

Same assay, conditions: second compound 0.1 µM; first compound 0.0316 µM; stronger effect = lower value

| SMILES | viability, T/C |
| --- | --- |
| CC(C)c1c(-c2ccccc2)nc2c(C#N)c[nH]n2c1=O + NC1CC1c1ccc(-c2cccc(O)c2)cc1 | 108% |
| CC1(C)CCC(CN2CCN(c3ccc(C(=O)NS(=O)(=O)c4ccc(NCC5CCOCC5)c([N+](=O)[O-])c4)c(Oc4cnc5[nH]ccc5c4)c3)CC2)=C(c2ccc(Cl)cc2)C1 + NC1CC1c1ccc(-c2cccc(O)c2)cc1 | 84.1% |
| CC(C)CC(NC(=O)CNC(=O)c1cc(Cl)ccc1Cl)B1OC(=O)CC(CC(=O)O)(C(=O)O)O1 (stereo not drawn) + NC1CCC(NC2CC2c2ccccc2)CC1 | 6.96% |
| CC1COCCN1c1cc(-c2ccnn2C)c2ccnc(-c3ccn[nH]3)c2n1 (stereo not drawn) + NC1CC1c1ccc(-c2cccc(O)c2)cc1 | 36.7% |
| CC[C@@]1(O)C(=O)OCc2c1cc1n(c2=O)Cc2cc3c(CN(C)C)c(O)ccc3nc2-1 + NC1CC1c1ccc(-c2cccc(O)c2)cc1 | 73.5% |

Same assay, conditions: second compound 0.1 µM; first compound 0.1 µM; stronger effect = lower value

| SMILES | viability, T/C |
| --- | --- |
| CC(C)c1c(-c2ccccc2)nc2c(C#N)c[nH]n2c1=O + NC1CC1c1ccc(-c2cccc(O)c2)cc1 | 117% |
| CC1(C)CCC(CN2CCN(c3ccc(C(=O)NS(=O)(=O)c4ccc(NCC5CCOCC5)c([N+](=O)[O-])c4)c(Oc4cnc5[nH]ccc5c4)c3)CC2)=C(c2ccc(Cl)cc2)C1 + NC1CC1c1ccc(-c2cccc(O)c2)cc1 | 109% |
| CC(C)CC(NC(=O)CNC(=O)c1cc(Cl)ccc1Cl)B1OC(=O)CC(CC(=O)O)(C(=O)O)O1 (stereo not drawn) + NC1CCC(NC2CC2c2ccccc2)CC1 | 5.21% |
